In ChEMBL document CHEMBL4190179 (Medchemcomm, 2016) one finds IC50 and inhibition data, which are given here for 34 compounds.

Some results are limits rather than exact numbers.

The target of one assay is T1, Nuclear receptor ROR-gamma (Homo sapiens, UniProt P51449).
T1 sequence (P51449 whole entry): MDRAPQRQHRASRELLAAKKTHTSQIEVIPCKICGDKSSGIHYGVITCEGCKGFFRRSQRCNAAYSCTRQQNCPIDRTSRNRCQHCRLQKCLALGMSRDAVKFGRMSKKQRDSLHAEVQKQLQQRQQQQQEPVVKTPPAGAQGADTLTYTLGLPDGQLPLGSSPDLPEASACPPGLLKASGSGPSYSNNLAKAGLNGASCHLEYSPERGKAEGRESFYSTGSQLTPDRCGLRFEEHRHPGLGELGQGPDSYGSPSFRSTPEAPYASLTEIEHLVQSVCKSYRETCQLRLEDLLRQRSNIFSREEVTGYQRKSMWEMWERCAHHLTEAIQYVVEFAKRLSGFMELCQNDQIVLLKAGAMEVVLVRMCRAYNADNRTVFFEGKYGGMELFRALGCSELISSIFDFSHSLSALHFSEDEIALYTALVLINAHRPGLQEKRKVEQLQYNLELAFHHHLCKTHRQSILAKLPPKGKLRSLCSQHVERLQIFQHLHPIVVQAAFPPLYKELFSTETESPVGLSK
Briefly: Inverse agonist activity at RORgammat (unknown origin) by FRET assay.
One may read the IC50 as the concentration that inhibits the measured activity by half. High values mean weaker potency in that assay, low ones greater potency in that assay. The compound `O=C(Nc1ccc(-c2cc(OC(F)(F)F)ccc2Cl)cc1)c1c(F)cccc1F` gave an IC50 of over 50 µM.

Test system in the next assay: not listed separately
Briefly: Inhibition of PMA-stimulated Il-17A production in mouse Th17 cells at 0.3 uM by live/dead fixable dead cell staining based flow cytometric analysis relative to control. It counts as functional. (In flow cytometry, cells or beads pass a laser one at a time.)
What is called inhibition is the relative decrease from the control value, in per cent. For `COc1ccc(Cl)c(-c2ccc(NC(=O)C3CCCC3)cc2)c1`, the inhibition at 0.3 µM was determined as 34%.

`O=C(Nc1ccc(-c2ccccc2)cc1)c1c(F)cccc1F`: the inhibition at 0.3 µM stood at 45%.

Consider `Cc1ccccc1-c1ccc(NC(=O)c2c(F)cccc2F)cc1`, for which the inhibition at 0.3 µM was found to be 60%.

With `COc1ccc(Cl)c(-c2ccc(NC(=O)C3CCCO3)cc2)c1` (configuration not stated), the inhibition at 0.3 µM turned out to be 30%.

For `COc1ccc(Cl)c(-c2ccc(NC(=O)c3c(F)cccc3F)cc2F)c1`, the inhibition at 0.3 µM is 82%.

Turning to `COc1ccc(Cl)c(-c2ccc(NC(=O)CC3CC3)cc2)c1`, the inhibition at 0.3 µM was determined as 9%.

Consider `O=C(O)c1ccc(Cl)c(-c2ccc(NC(=O)c3c(F)cccc3F)cc2)c1`, for which the inhibition at 0.3 µM worked out at 7%.

Turning to `COc1ccc(Cl)c(-c2ccc(NC(=O)c3ncccc3F)cc2)c1`, the inhibition at 0.3 µM came out at 22%.

As to `COc1ccc(Cl)c(-c2ccc(NC(=O)CCc3ccccc3)cc2)c1`, the inhibition at 0.3 µM was 24%.

On to `COc1ccc(Cl)c(-c2ccc(NC(=O)C3CCN(C)CC3)cc2)c1`, for which the inhibition at 0.3 µM turned out to be 16%.

Take `COc1ccc(Cl)c(-c2ccc(NC(=O)C3CCOCC3)cc2)c1`: the inhibition at 0.3 µM stood at 35%.

Turning to `O=C(Nc1ccc(-c2cccnc2)cc1)c1c(F)cccc1F`, the inhibition at 0.3 µM was 17%.

Consider `COCC(=O)Nc1ccc(-c2cc(OC)ccc2Cl)cc1`, for which the inhibition at 0.3 µM amounted to 1%.

Turning to `COc1ccc(Cl)c(-c2ccc(NC(=O)c3c(F)cccc3F)cc2)c1`, the inhibition at 0.3 µM is 71%.

As for `O=C(Nc1ccc(-c2cc(OC(F)(F)F)ccc2Cl)cc1)c1c(F)cccc1F`, the inhibition at 0.3 µM stood at 97%.

As to `COc1ccc(Cl)c(-c2ccc(NC(=O)c3ccccc3)cc2)c1`, the inhibition at 0.3 µM came out at 35%.

For the compound `Cc1ccc(-c2ccc(NC(=O)c3c(F)cccc3F)cc2)cn1`, the inhibition at 0.3 µM worked out at 4%.

Consider `COc1ccc(Cl)c(-c2ccc(NC(=O)Cc3ccccc3)cc2)c1`, for which the inhibition at 0.3 µM amounted to 33%.

Take `COc1ccc(Cl)c(-c2ccc(NC(=O)c3c(F)cccc3F)cc2Cl)c1`: the inhibition at 0.3 µM amounted to 75%.

Consider `COc1ccc(Cl)c(-c2ccc(NC(=O)C3CC3)cc2)c1`, for which the inhibition at 0.3 µM turned out to be 35%.

Turning to `COc1ccc(Cl)c(-c2ccc(NC(=O)c3c(F)cccc3F)cn2)c1`, the inhibition at 0.3 µM was 29%.

Regarding `COc1ccc(Cl)c(-c2cccc(NC(=O)c3c(F)cccc3F)c2)c1`, the inhibition at 0.3 µM came to 12%.

With `COc1ccc(Cl)c(-c2ccc(NC(=O)c3ccccc3F)cc2)c1`, the inhibition at 0.3 µM was 43%.

Regarding `COc1ccc(C)c(-c2ccc(NC(=O)c3c(F)cccc3F)cc2)c1`, the inhibition at 0.3 µM is 93%.

For the compound `COc1ccc(Cl)c(-c2ccc(NC(=O)c3ccccc3Cl)cc2)c1`, the inhibition at 0.3 µM was 39%.

With `COc1ccc(Cl)c(-c2ccc(NC(=O)c3c(F)cccc3Cl)cc2)c1`, the inhibition at 0.3 µM is 64%.

As to `O=C(Nc1ccc(-c2ccccc2Cl)cc1)c1c(F)cccc1F`, the inhibition at 0.3 µM stood at 48%.

Take `COc1ccc(Cl)c(-c2ccc(NC(=O)CC3CCOCC3)cc2)c1`: the inhibition at 0.3 µM amounted to 8%.

As to `COc1ccc(Cl)c(-c2ccc(NC(=O)C(C)C)cc2)c1`, the inhibition at 0.3 µM came to 22%.

Take `COc1ccc(Cl)c(-c2ccc(NC(=O)Cc3ccccc3F)cc2)c1`: the inhibition at 0.3 µM worked out at 19%.

Turning to `COc1ccc(Cl)c(-c2ccc(NC(C)=O)cc2)c1`, the inhibition at 0.3 µM is 11%.

As for `COc1ccc(Cl)c(-c2ccc(NC(=O)c3ccccc3C(F)(F)F)cc2)c1`, the inhibition at 0.3 µM was 25%.

For `COc1ccc(Cl)c(-c2ccc(NC(=O)C3CCCCC3)cc2)c1`, the inhibition at 0.3 µM turned out to be 26%.

In the case of `Cn1cc(-c2ccc(NC(=O)c3c(F)cccc3F)cc2)cn1`, the inhibition at 0.3 µM was -7%.

A further assay is filed under the species Mus musculus. Briefly: (§1) Inhibition of PMA-stimulated Il-17A production in mouse Th17 cells by live/dead fixable dead cell staining based flow cytometric analysis. It counts as functional.
In the case of `O=C(Nc1ccc(-c2cc(OC(F)(F)F)ccc2Cl)cc1)c1c(F)cccc1F`, the inhibition entry is “Dose-dependent effect”.

Test system in the next assay: not listed separately
The assay is described as §1. It counts as functional.
In turn, `O=C(Nc1ccc(-c2cc(OC(F)(F)F)ccc2Cl)cc1)c1c(F)cccc1F` displayed an IC50 of 13 nM.
